Columns and labels:
[1] = system: HEK-293 cells transfected with a random vector (MocK); test: Dual-Glo Luciferase assay, cells transfected with a random vector (MocK); assay type: cell-based, Human; details: Comparative Example, FIG. 5
[2] = target: T1, TAAR13c-embedded nanodiscs (T13NDs) (Danio rerio, UniProt Q5QNP2); test: Real-time intrinsic tryptophan fluorescence of T13ND; assay type: binding, zebrafish (Danio rerio); details: excitation 290 nm; emission 340 nm; FIG. 11
T1 construct: His tag (from pET-DEST42) (C); made in house; host or cells: E. coli BL21 (DE3)
T1 sequence (Q5QNP2 1-341): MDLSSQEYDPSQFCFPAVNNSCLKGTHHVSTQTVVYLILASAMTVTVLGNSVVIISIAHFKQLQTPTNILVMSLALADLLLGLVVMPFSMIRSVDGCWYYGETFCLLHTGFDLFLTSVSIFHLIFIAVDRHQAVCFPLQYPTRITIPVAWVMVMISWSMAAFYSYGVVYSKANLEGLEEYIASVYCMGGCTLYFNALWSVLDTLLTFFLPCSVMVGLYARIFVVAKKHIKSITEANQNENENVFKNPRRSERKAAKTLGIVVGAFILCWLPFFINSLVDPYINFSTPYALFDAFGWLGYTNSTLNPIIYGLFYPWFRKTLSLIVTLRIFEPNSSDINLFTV
Description: The intrinsic fluorescence of T13NDs was measured real time using the LS 55 luminescence spectrometer (Perkin Elmer, USA) (excitation 290 nm; emission 340 nm). The real-time measurement of intrinsic fluorescence of TAAR13c was measured at various amine concentrations of 1 mM to 10 mM.

[3] = target: T2, TAAR13c (Danio rerio, UniProt Q5QNP2); test: Dual-Glo Luciferase assay, TAAR13c-expressing HEK-293 cells; assay type: cell-based, zebrafish (Danio rerio)
T2 construct: expressed in transfected cells; host or cells: HEK-293
T2 sequence (Q5QNP2 1-341): T1 sequence (Q5QNP2 1-341)
Description: Human embryonic kidney (HEK)-293 cells were cultured in Dulbecco's Modified Eagles Medium (DMEM) (HyClone, USA) containing 1% penicillin, 1% streptomycin (Gibco, USA) and 10% Fetal Bovine Serum (FBS)(Gibco, USA), under the conditions of 37° C. and 5% C02. Transfection was performed by the following method using Lipofectamine® 3000. Specifically, the cells were transfected with a DNA mixture containing TAAR13c, pCRE-Luc, pSV40-RL, Gαolf, and Receptor-transporting protein 1 short (RTP1S) using Lipofectamine® 3000. The characteristics against cadaverine were confirmed using the TAAR13c produced in Example 4 by the Dual-Glo Luciferase assay system. Specifically, the transfected cells were cultured in DMEM medium (50 μL) for 30 minutes, and an odorant (25 μL) designed to the desired concentration was added thereto, and cultured for 4 hours. Then, the Dual-Glo Luciferase reagent (20 μL) was added thereto, cultured at room temperature for 10 minutes, and the firefly luciferase luminescence was measured using the luminescence plate reader. Then, the Dual-Glo Stop-n-Glo reagent (20 μL) was added to the measured sample, and the mixture was cultured at room temperature for 10 minutes, and the Renilla luciferase luminescence was measured. The measured data was analyzed using the following formula. […]

real-time tryptophan fluorescence of T13ND with increasing concentration of CV [2]: T13ND has an affinity for CV
selectivity of TAAR13c response among various amines (cell-based) ([3]; FIG. 6): showed a response only against CV
response of TAAR13c-expressing cells to CV (normalised CRE/Renilla luciferase) ([3]; concentration-dependent treatment of CV, 4 hours, FIG. 5): significant response
Structure (SMILES): NCCCCCN [CV, cadaverine]
response of Mock-transfected cells to CV (normalised CRE/Renilla luciferase) [1]: did not show any significant response

Reference: patent US20210214401A1, “MANUFACTURING METHOD OF NANODISC COMPRISING AN OLFACTORY RECEPTOR PROTEIN AND NANODISC COMPRISING AN OLFACTORY RECEPTOR PROTEIN MANUFACTURED BY THE SAME” (SEOUL NATIONAL UNIVERSITY R&DB FOUNDATION, priority 2017, published 2021)
